Experimental data from publication PMC4055736, “Functional Characterization of a Novel Family of Acetylcholine-Gated Chloride Channels in Schistosoma mansoni” (PLoS Pathogens, 2014).

Legend:
Format in all cases: cell-based
SmACC-1 [1] = target: T1, SmACC-1 (Schistosoma mansoni, UniProt V5WAE7); experiment: YFP halide sensor iodide flux assay in transfected HEK-293 cells, dose response (agonist)
T1 construct: gene ACC-1; full-length, human codon-optimized, C-terminal FLAG tag; homomeric channel
T1 sequence (V5WAE7 24-804): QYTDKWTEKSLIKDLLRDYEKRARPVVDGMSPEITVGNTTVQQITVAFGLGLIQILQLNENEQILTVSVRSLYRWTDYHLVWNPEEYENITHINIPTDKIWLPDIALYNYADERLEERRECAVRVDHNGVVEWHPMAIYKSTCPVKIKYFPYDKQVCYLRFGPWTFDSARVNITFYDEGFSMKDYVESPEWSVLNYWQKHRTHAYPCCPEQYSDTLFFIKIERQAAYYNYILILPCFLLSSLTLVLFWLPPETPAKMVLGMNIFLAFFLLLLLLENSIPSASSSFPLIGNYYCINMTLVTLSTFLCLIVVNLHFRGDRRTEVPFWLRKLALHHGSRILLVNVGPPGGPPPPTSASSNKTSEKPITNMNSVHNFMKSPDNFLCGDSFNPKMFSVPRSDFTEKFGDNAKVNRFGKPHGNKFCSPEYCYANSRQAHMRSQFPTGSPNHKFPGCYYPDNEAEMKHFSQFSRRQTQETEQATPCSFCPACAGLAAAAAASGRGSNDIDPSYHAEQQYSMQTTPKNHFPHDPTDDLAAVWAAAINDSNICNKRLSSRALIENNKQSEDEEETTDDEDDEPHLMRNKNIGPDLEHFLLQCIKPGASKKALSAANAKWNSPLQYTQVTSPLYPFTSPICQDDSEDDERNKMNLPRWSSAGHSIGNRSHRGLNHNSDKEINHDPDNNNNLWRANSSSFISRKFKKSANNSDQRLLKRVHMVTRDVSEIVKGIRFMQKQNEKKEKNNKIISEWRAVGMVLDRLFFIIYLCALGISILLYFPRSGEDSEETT

SmACC-1 [2] = target: T1, SmACC-1; experiment: YFP halide sensor iodide flux assay in transfected HEK-293 cells, […] agonist
SmACC-1 [3] = target: T1, SmACC-1; experiment: YFP halide sensor iodide flux assay in transfected HEK-293 cells; block of […] nicotine response by […] antagonist

Row | SMILES | YFP halide sensor iodide flux assay in transfected HEK-293 cells, 100 μM agonist (SmACC-1 [2]) | further results
1 | CN1CCC[C@H]1c1cccnc1 [nicotine] |  | EC50 (SmACC-1 [1]): 4.3 ± 1.4 µM
2 | COC(=O)C1=CCCN(C)C1 [arecoline] | statistically significant responses were also seen with other cholinergic agonists (ACh, choline chloride, carbachol and arecoline) | 
3 | C[N+](C)(C)CCO [choline] | statistically significant responses were also seen with other cholinergic agonists (ACh, choline chloride, carbachol and arecoline) | 
4 | COc1cc2c3cc1Oc1cc(ccc1O)C[C@@H]1c4c(cc(OC)c(O)c4Oc4ccc(cc4)C[C@@H]3N(C)CC2)CC[N+]1(C)C [D-tubocurarine] |  | YFP halide sensor iodide flux assay in transfected HEK-293 cells; block of 100 μ (SmACC-1 [3]): only D-tubocurarine was able to significantly block the activation of SmACC-1 by nicotine
5 | C[N+](C)(C)CCOC(N)=O [carbachol] | statistically significant responses were also seen with other cholinergic agonists (ACh, choline chloride, carbachol and arecoline) | 
